Data from US4200631A, “Treating mammalian subject sensitive to indomethacin ulcerogenisis” (priority 1978, dated 1980).
“And” between values parts separate entries of the source, which are not always exact repeats. Equal entries are not always repeated. “Also recorded” adds a separate entry of the source. Where two headings read alike, the source gives them in different places.

What was measured:
[1] = Gastric ulcerogenic side-effects, starved rats (Series 1, Tables 1 and 2); conditions: for No. of ulcer/stomach / Ulcer-free animals % / Ulcer-free animals No.: 4 h
[2] = rat, in vivo; for Analgesic ED50 / Therapeutical index LD50/ED50 (C): po
[3] = rat, in vivo; for ED50 at 180 min: po
in vivo [4] = conditions: rat, po
[5] = Antiphlogistic effect, carrageenin-oedema test (Series 1, Table 3)
Method: The antiphlogistic effects were studied on Wistar rats of both sexes, animal subjects found to be particularly prone to indomethacin ulcerogenisis, each weighing 100 to 150 g. The animals were starved for 24 hours, and then 0.1 ml portions of a 1% carrageenin solution were injected under mild ether anaesthesia into the plantar region of one of the hind paws in order to provoke inflammation (oedema). The antiphlogistic agent or a combination thereof was introduced into the stomach of the animals via a stomach tube immediately before injecting the carrageenin solution. 4 hours after this treatment the animals were sacrificed, and both hind paws were amputated above the ankles. The paws were weighed, and the oedema weight was calculated from the weight difference of the treated and untreated paws.

in vivo [6] = conditions: rat, po; remark: listed apart in the source
prostaglandin synthesis = conditions: listed as Na-salicylate; cited from earlier work
[7] = 3-day gastrointestinal side-effect test on non-starved animals (Table 4); format: in vivo, rats
Method: In the following tests animals treated for 3 days with various combinations of indomethacin and sodium salicylate were examined. The non-starved test animals were treated orally for 3 days with compositions containing 20 mg/kg of indomethacin and increasing amounts of sodium salicylate.

[8] = rat, in vivo
in vivo [9] = conditions: rat, po; remark: listed apart in the source
in vivo [10] = conditions: rat, po; remark: listed apart in the source
[11] = treated subsequently with Na-salicylate; cited from earlier work
[12] = general statement; cited from earlier work
[13] = rat, in vivo; remark: listed apart in the source
[14] = indomethacin 3 × 20 mg/kg p.o. alone

O=C([O-])c1ccccc1O.[Na+] [Sodium salicylate]
No. of ulcer/stomach ([1]; 50 mg/kg p.o.): 0.1 ulcer/stomach | Ulcer-free animals % ([1]; 50 mg/kg p.o.): 82% | Ulcer-free animals No. ([1]; 50 mg/kg p.o.): 37 No. | No. of ulcer/stomach ([1]; 100 mg/kg p.o.): 0.1 ulcer/stomach | Ulcer-free animals % ([1]; 100 mg/kg p.o.): 96% | Ulcer-free animals No. ([1]; 100 mg/kg p.o.): 27 No. | No. of ulcer/stomach ([1]; 200 mg/kg p.o.): 1.2 ulcer/stomach | Ulcer-free animals % ([1]; 200 mg/kg p.o.): 50% | Ulcer-free animals No. ([1]; 200 mg/kg p.o.): 37 No. | No. of ulcer/stomach ([1]; 400 mg/kg p.o.): 1.1 ulcer/stomach | Ulcer-free animals % ([1]; 400 mg/kg p.o.): 71% | Ulcer-free animals No. ([1]; 400 mg/kg p.o.): 32 No. | gastrointestinal hemorrhagic or ulcerogenic side-effects of other non-steroidal antiphlogistic agents, specifically indomethacin ([1]; Series 1 discussion): antangonizes the gastrointestinal hemmorhagic or ulcerogenic side-effects | Analgesic ED50 [2]: 513 mg/kg | Therapeutical index LD50/ED50 (C) [2]: 4.6 | ED50 at 180 min [3]: 320 mg/kg | LD50 (in vivo [4]): 2400 mg/kg | Oedema-inhibiting effect % ([5]; sodium salicylate 50 mg/kg p.o. alone): 15% | Oedema-inhibiting effect % ([5]; sodium salicylate 100 mg/kg p.o. alone): 43% | selectivity ratio (in vivo [6]): 7.5 | inhibition of prostaglandin synthesis (prostaglandin synthesis): except Na-salicylate; also recorded: practically ineffective as a prostaglandin inhibitor

COc1ccc2c(c1)c(CC(=O)O)c(C)n2C(=O)c1ccc(Cl)cc1 [Indomethacin]
Inhibition of oedema, 3rd day, left (challenged) foot (daily dose 0.65 mg/kg p.o.): 26.7 percentage of control | Inhibition of oedema, 21st day, left foot (daily dose 0.65 mg/kg p.o.): 46.6 percentage of control | Inhibition of oedema, 21st day, right foot (daily dose 0.65 mg/kg p.o.): 47.2 percentage of control | Inhibition of oedema, 3rd day, left (challenged) foot (daily dose 1.25 mg/kg p.o.): 36.3 percentage of control | Inhibition of oedema, 21st day, left foot (daily dose 1.25 mg/kg p.o.): 46.7 percentage of control | Inhibition of oedema, 21st day, right foot (daily dose 1.25 mg/kg p.o.): 35.6 percentage of control | Inhibition of oedema, 3rd day, left (challenged) foot (daily dose 2.50 mg/kg p.o.): 36.8 percentage of control | Inhibition of oedema, 21st day, left foot (daily dose 2.50 mg/kg p.o.): 58.0 percentage of control | Inhibition of oedema, 21st day, right foot (daily dose 2.50 mg/kg p.o.): 72.6 percentage of control | Died animals No. [7, 14]: 33 No. | Ulcerous animals % [7, 14]: 100% | Ulcerous animals No. [7, 14]: 45 No. | ulcers in the intestines of the survivors ([7]; indomethacin only, 20 mg/kg for 3 days, orally): clearly visible ulcers appeared in the intestines of the survivors | mortality at 72 h ([7]; rat, in vivo, po, indomethacin 3 × 20 mg/kg p.o. alone, 3rd day, read-out: Died animals %): 73% | Relative intestinal toxicity IUD50/ED50 (C) [2]: 3.8 | Analgesic ED50 [2]: 3.65 mg/kg | Therapeutical index LD50/ED50 (C) [2]: 3.4 | acute toxicity of indomethacin alone relative to combination with Na-salicylate [8]: 72 fold | Inhibition of oedema 30 min following carrageenin [3]: 23.6 and 42.3 and 42.7 | Inhibition of oedema 180 min following carrageenin [3]: 30.5 and 53.0 and 53.4 | Relative intestinal toxicity IUD50/ED50 (A) [3]: 5.8 | ED50 at 180 min [3]: 2.4 mg/kg | LD50 (in vivo [4]): 12.5 mg/kg | Oedema-inhibiting effect % ([5]; indomethacin 5 mg/kg p.o. alone): 40% | Oedema-inhibiting effect % ([5]; indomethacin 10 mg/kg p.o. alone): 45% | selectivity ratio (in vivo [6]): 5.2 | TD50 at 48 h (in vivo [9]): 14 mg/kg | TD50 at 4 h (in vivo [10]): 5 mg/kg | reduction of indomethacin blood levels [11]: 30-50% | ulcerating potency among non-steroid antiinflammatory agents [12]: most potent ulcerating compound

O=C(O)c1cccnc1Nc1cccc(C(F)(F)F)c1 [Niflumic acid]
ulcerogenic side-effects when administered together with sodium salicylate [13]: can also be antagonized effectively | main antiphlogistic effects when administered together with sodium salicylate [5]: remain unchanged, or even the antiphlogistic effects of the two active agents are superimposed

CC(=O)Oc1ccccc1C(=O)O [Aspirin, acetylsalicylic acid]
ulcerogenic side-effects when administered together with sodium salicylate [13]: can also be antagonized effectively | main antiphlogistic effects when administered together with sodium salicylate [5]: remain unchanged, or even the antiphlogistic effects of the two active agents are superimposed

CCCCC1C(=O)N(c2ccccc2)N(c2ccccc2)C1=O [Phenylbutazone, 4-butyl-1,2-diphenyl-pyrazolidine-3,5-dione]
ulcerogenic side-effects when administered together with sodium salicylate [13]: can also be antagonized effectively | main antiphlogistic effects when administered together with sodium salicylate [5]: remain unchanged, or even the antiphlogistic effects of the two active agents are superimposed
